According to patent US7569607B2, “Spider esters in personal care applications” (SurfaTech Corporation, priority 2005, dated 2009):

Test: Sun Screen Solubility (appearance of sunscreen dissolved in ester)
Format: physicochemical
Details: for Age Appearance: after 48 hours at room temperature, 24 hours in refrigerator (37° F.) and 48 hours at room temperature; for Initial Appearance: solvent ester not named

Structure (SMILES) | Age Appearance (1% weight sunscreen) | Initial Appearance (1% weight sunscreen) | Age Appearance (3% weight sunscreen) | Initial Appearance (3% weight sunscreen)
COc1ccc(C(=O)c2ccccc2)c(O)c1 [Benzophenone 3] | Very Slight Haze^(2) | Clear | Very Slight Haze^(2) | Clear
CCCCC(CC)COC(=O)C=Cc1ccc(OC)cc1 (stereo not drawn) [Octylmethoxyciminate] | Clear | Clear |  | 
